Blank lines part the entries; values can stand above or below the compound they belong to.
Legend:
Oral absorption in rats = format: in vivo; details: data not shown
From the text: Therefore, any of the compounds, wherein R^9 represents an alkyl group or a hydrogen atom, can be used in the treatment of the above diseases.

[1] = system: human platelet aggregation; experiment: Human platelet aggregation inhibitory activity (method of Pharmacological Test 1 in WO 94/21599); format: cell-based; details: for IC50: read-out: IC50, human platelet aggregation inhibition
Procedure: (§1) GP IIb/IIIa Antagonistic Activity and Human Platelet Aggregation Inhibitory Activity
Human platelet aggregation inhibitory activity was measured for the compounds according to the present invention. The measurement of the human platelet aggregation activity was carried out according to the method described in Pharmacological Test 1 in WO 94/21599.

GP IIb/IIIa = GP IIb/IIIa (Homo sapiens, UniProt P05106+P08514); experiment: GP IIb/IIIa antagonistic activity (method of Pharmacological Test 2 in WO 94/21599); format: binding
Chain of GP IIb/IIIa (P08514 32-887 limits assumed): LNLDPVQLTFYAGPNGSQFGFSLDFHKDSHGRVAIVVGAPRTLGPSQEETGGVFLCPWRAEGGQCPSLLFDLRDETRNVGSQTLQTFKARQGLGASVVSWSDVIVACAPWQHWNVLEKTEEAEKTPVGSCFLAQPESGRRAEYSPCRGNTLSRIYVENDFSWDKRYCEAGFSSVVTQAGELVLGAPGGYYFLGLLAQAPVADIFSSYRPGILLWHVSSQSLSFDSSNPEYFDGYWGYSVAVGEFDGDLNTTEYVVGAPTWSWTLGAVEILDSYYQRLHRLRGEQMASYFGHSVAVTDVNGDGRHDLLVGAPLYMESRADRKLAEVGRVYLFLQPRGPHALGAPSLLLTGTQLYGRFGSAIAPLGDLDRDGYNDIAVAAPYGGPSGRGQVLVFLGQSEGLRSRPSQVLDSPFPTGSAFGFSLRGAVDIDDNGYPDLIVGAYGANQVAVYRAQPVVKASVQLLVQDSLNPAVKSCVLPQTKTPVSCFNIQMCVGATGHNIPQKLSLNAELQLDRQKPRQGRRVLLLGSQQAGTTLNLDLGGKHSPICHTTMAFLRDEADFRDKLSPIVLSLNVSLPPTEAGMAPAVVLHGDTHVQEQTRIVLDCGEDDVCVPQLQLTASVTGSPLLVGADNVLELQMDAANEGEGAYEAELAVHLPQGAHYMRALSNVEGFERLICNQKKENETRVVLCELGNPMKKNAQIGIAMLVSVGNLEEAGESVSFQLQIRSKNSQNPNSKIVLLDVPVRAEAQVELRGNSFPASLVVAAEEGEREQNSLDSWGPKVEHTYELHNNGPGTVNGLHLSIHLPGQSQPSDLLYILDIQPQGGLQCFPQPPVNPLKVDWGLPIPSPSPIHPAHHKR
Chain of GP IIb/IIIa (P08514 891-1039 partner limits assumed): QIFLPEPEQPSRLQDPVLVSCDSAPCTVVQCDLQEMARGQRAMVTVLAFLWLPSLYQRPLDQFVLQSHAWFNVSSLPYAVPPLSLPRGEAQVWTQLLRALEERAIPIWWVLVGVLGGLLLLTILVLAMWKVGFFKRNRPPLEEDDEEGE
Chain of GP IIb/IIIa (P05106 27-788): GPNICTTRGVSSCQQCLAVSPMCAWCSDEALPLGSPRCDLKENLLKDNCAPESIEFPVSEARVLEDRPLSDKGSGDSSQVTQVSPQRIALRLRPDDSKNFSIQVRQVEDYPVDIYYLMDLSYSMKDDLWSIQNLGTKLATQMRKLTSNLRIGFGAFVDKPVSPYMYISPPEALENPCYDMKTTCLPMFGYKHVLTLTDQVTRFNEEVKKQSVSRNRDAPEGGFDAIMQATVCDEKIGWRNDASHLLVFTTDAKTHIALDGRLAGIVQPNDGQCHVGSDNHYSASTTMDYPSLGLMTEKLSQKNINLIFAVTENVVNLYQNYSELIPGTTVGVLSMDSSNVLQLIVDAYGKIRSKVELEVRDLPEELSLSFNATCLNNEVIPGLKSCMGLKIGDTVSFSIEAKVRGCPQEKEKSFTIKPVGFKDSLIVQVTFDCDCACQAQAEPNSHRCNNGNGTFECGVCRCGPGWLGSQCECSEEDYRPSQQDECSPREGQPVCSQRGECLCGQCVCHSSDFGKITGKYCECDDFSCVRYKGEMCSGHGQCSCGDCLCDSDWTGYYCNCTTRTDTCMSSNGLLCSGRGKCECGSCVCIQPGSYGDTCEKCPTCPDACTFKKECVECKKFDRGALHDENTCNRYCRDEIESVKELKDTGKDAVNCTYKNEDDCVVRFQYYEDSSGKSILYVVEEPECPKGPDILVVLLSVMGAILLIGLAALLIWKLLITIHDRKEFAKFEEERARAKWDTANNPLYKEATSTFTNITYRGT
Procedure: as §1
GP IIb/IIIa antagonistic activity was measured for the compounds according to the present invention. The measurement of the GP IIb/IIIa antagonistic activity was carried out according to the method described in Pharmacological Test 2 in WO 94/21599.

[2] = target: T1, integrin αvβ3 (vitronectin receptor purified from the human placenta) (Homo sapiens, UniProt P05106+P06756); experiment: αvβ3 binding assay (vitronectin-vitronectin receptor binding assay); details: for IC50: vitronectin receptor from human placenta, read-out: IC50, inhibition of binding between vitronectin and vitronectin receptor (αvβ3 binding inhibitory activity)
T1 construct: a vitronectin receptor (protein content: 118 μg/ml) purified from the human placenta; from tissue; host or cells: human placenta
T1 sequence (P06756 31-889 limits assumed): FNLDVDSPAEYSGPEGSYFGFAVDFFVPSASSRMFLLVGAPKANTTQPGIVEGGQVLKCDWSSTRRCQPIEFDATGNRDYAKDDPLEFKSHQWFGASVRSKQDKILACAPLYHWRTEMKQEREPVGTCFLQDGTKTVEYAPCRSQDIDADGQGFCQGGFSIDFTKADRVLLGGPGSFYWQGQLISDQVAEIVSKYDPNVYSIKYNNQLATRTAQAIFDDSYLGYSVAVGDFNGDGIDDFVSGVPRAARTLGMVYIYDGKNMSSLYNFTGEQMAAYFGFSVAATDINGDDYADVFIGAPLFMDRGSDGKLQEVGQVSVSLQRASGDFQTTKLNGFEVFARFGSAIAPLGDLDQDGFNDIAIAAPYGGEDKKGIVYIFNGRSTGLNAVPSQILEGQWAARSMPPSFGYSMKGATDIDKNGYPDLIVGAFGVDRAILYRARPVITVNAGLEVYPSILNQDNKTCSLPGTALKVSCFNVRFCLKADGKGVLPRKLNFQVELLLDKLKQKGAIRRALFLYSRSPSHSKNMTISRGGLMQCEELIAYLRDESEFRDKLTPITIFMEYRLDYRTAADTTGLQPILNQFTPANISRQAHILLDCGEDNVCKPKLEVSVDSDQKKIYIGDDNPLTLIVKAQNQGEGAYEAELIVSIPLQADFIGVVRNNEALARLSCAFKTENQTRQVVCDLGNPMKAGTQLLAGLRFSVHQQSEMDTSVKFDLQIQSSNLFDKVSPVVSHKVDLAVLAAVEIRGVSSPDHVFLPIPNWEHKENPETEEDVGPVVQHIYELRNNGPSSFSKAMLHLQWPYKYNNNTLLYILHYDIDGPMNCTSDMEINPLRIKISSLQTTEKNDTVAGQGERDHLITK
T1 sequence (P06756 891-1048 partner limits assumed): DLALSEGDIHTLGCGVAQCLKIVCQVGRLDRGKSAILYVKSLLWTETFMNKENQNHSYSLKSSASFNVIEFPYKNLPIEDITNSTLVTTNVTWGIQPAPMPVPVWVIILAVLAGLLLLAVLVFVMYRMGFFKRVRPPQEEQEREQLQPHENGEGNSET
T1 sequence (P05106 27-788): as the sequence (P05106 27-788) above
Procedure: Integrin αvβ3 antagonistic activity was measured for the compounds according to the present invention in a vitronectin-vitronectin receptor binding assay system in accordance with the method of Kouns et al. (W. C. Kouns, D. Kirchhofer, P. Hadvary, A. Edenhofer, T. Weller, G. Pfenninger, H. R. Baumgartner, L. K. Jennings and B. Steiner, Blood, 8, 2539-2547 (1992)).
Specifically, a vitronectin receptor (protein content: 118 μg/ml) purified from the human placenta in accordance with the method of Pytela et al. (R. Pytela, M. D. Pierschbacher, S. Argraves, S. Suzuki, and E. Ruoslahti, Method in Enzymology, 144, 475-489 (1987)) was diluted 50 times with TBS (20 mM Tris-HCl, 150 mM NaCl, 1 mM CaCl2, 1 mM MgCl2, pH 7.4), and distributed and coated on wells (50 μl/well) of a plate (Maxisorp, Nunc, 96 well Immuno Plate). The plate was then allowed to stand at 4° C. for 1 day, washed twice with TBS (200 μl/well), and then subjected to blocking with TBS (150 μl/well) containing 1% bovine serum albumin (SIGMA) at 4° C. overnight. After washing twice with TBS (200 μl/well), 50 μl of vitronectin (CALBIOCHEM) adjusted to 0.2 μg/ml by the addition of TBS (TBS-Tween) containing 0.01% Tween-20 was mixed with 50 μl of each test compound adjusted to each concentration in wells, and a reaction was allowed to proceed at room temperature for 4 hr. After the completion of the reaction, the wells were washed five times with TBS-Tween. A solution prepared by diluting anti-vitronectin rabbit antiserum (CHEMICON) 500 times with TBS-Tween was added as a primary antibody in an amount of 50 μl per well, and a reaction was allowed to proceed at room temperature for 1.5 hr. After washing five times with 200 μl/well of TBS-Tween, a peroxidase (POD)-labeled anti-rabbit IgG antibody solution (CAPPEL) diluted 500 times with TBS-Tween was added as a secondary antibody in an amount of 50 μl/well, and a reaction was allowed to proceed at room temperature for 1.5 hr. After washing five times with TBS-Tween (200 μl /well), ABTS (2,2′-azino-bis(3-ethylbenzthiazoline-6-sulfonic acid), SIGMA) was adjusted to 1 mg/ml by the addition of a ten-fold diluted POD-buffer (ZYMED), and added in an amount of 50 μl/well, and a reaction was allowed to proceed for 5 to 10 min. A 0.1 M citric acid buffer (pH 4.3) containing 0.05% NaN3 was added in an amount of 50 μl/well to stop the reaction, followed by the measurement of the absorbance at 415 nm with a microplate reader (MTP 32, Corona Electric) (reference: 675 nm). The total binding was defined as the absorbance after a reaction using 50 μl of TBS-Tween instead of the test compound, and the non-specific binding (100% inhibition) was defined as the absorbance after a reaction using 50 μl of TBS-Tween containing 2×10^−3 M RGDS. The inhibition was calculated by the following equation: [formula]
(§2) IC50 was determined from a primary regression line of the logarithm of each concentration of the test compound and the logarithm of (100−inhibition)/inhibition.

[3] = target: T2, integrin α5β1 (fibronectin receptor purified from the human placenta) (Homo sapiens, UniProt P05556+P08648); experiment: α5β1 binding assay (fibronectin-fibronectin receptor binding assay); details: read-out: IC50, integrin α5β1 antagonistic activity (fibronectin-fibronectin receptor binding)
T2 construct: a fibronectin receptor (protein content: 52.1 μg/ml) purified from the human placenta; from tissue; host or cells: human placenta
T2 sequence (P08648 42-894 limits assumed): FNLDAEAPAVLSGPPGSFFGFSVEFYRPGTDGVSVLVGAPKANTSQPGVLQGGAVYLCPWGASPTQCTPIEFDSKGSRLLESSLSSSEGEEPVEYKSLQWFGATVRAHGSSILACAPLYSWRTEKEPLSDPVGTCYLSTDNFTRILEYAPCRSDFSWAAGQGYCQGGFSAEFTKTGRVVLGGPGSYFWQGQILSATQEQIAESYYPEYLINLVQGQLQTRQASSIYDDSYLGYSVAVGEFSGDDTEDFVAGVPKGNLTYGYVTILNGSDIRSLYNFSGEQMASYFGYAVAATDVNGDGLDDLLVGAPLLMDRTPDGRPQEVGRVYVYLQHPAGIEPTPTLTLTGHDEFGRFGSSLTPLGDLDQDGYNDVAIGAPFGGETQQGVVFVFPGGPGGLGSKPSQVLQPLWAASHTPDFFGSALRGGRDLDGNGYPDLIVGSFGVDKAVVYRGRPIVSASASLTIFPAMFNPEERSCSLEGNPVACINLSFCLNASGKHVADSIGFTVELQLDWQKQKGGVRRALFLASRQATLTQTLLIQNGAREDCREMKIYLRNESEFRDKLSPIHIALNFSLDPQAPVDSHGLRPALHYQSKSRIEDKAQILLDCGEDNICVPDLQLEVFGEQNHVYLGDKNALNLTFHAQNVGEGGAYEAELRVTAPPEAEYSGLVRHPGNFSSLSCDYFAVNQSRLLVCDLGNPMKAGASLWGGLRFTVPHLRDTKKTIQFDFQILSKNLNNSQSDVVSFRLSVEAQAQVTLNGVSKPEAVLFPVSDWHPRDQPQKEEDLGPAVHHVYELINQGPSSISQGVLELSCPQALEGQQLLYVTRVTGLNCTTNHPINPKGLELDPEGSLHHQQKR
T2 sequence (P08648 895-1049 partner limits assumed): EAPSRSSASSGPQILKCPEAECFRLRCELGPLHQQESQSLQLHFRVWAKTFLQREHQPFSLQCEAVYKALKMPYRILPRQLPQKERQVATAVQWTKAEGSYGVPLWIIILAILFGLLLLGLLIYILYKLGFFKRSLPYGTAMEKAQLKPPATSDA
T2 sequence (P05556 21-798): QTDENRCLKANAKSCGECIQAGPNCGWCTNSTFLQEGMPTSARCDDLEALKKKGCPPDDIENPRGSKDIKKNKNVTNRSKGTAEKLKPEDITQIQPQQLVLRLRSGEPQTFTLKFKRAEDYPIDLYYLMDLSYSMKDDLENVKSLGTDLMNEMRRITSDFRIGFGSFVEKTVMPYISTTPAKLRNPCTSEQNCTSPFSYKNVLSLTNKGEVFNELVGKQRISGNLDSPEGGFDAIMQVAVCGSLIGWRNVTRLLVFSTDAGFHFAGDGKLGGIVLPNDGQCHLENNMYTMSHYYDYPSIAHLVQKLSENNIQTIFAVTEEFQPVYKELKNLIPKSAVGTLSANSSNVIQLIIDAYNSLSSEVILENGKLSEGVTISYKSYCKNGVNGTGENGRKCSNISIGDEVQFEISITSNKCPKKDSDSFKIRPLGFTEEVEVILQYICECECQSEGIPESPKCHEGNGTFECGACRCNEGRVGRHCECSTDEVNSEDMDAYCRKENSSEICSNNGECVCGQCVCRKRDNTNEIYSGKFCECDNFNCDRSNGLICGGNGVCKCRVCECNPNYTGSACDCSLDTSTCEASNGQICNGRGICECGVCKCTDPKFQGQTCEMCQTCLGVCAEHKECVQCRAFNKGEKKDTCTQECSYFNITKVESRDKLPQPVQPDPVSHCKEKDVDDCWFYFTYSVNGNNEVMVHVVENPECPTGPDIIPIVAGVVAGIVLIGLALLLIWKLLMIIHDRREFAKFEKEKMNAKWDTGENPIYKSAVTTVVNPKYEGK
Procedure: The plate was then allowed to stand at 4° C. for one day, washed twice with TBS (200 μl/well), and then subjected to blocking with TBS (150 μl/well) containing 3% skim milk (DIFCO) at 4° C. overnight. […] After the completion of the reaction, the wells were washed five times with TBS-Tween. A solution prepared by diluting a peroxidase-labeled fibronectin antibody (CAPPEL) 500 times with TBS-Tween was added in an amount of 50 μl per well, and a reaction was allowed to proceed at room temperature for 1.5 hr. After washing five times with TBS-Tween (200 μl/well), ABTS (SIGMA) adjusted to 1 mg/ml by the addition of a ten-fold diluted POD-buffer (ZYMED) was added in an amount of 50 μl/well, and a reaction was allowed to proceed for 5 to 10 min. A 0.1 M citric acid buffer (pH 4.3) containing 0.05% NaN3 was added in an amount of 50 μl/well to stop the reaction, followed by the measurement of the absorbance at 415 nm with a microplate reader (MTP 32, Corona Electric) (reference: 675 nm). […] The inhibition was calculated by the following equation: [formula]
as §2

Compound: O=C(NC[C@H](NS(=O)(=O)c1ccccc1)C(=O)O)c1ccc(N2CCCN(C3=NCCCN3)CC2)cc1 [Example 6, (2S)-Benzenesulfonylamino-3-[4-{4-(1,4,5,6-tetrahydropyrimidin-2-yl)-[1,4]diazepan-1-yl}-benzoylamino]-propionic acid]
human platelet aggregation inhibition (in words) [1]: very strongly inhibited human platelet aggregation
IC50 [1]: 50 nM

Compound: C[C@@H]1CN(c2ccc(C(=O)NC[C@H](NS(=O)(=O)c3ccccc3)C(=O)O)cc2)CCN1C1=NCCCN1 [Example 12, (2S)-Benzenesulfonylamino-3-[4-{(3R)-methyl-4-(1,4,5,6-tetrahydropyrimidin-2-yl)-piperazin-1-yl}-benzoylamino]-propionic acid]
human platelet aggregation inhibition (in words) [1]: very strongly inhibited human platelet aggregation

Compound: O=C(NC[C@H](NS(=O)(=O)c1ccccc1)C(=O)O)c1ccc(N2CCN(C3=NCCCN3)CC2)c(Cl)c1 [Example 59, (2S)-Benzenesulfonylamino-3-[3-chloro-4-{4-(1,4,5,6-tetrahydropyrimidin-2-yl)-piperazin-1-yl}-benzoylamino]-propionic Acid]
IC50 (GP IIb/IIIa): ≤ 0.2 nM
IC50 [2]: 3.5 nM
IC50 [3]: 63000 nM

Compound: O=C(NC[C@H](NS(=O)(=O)c1ccccc1)C(=O)O)c1ccc(N2CCN(C3=NCCCN3)CC2)cc1Cl [Example 62, (2S)-Benzenesulfonylamino-3-[2-chloro-4-{4-(1,4,5,6-tetrahydropyrimidin-2-yl)-piperazin-1-yl}-benzoylamino]-propionic Acid]
IC50 (GP IIb/IIIa): ≤ 0.2 nM

Compound: Nc1c(N2CCN(C3=NCCCN3)CC2)ccc(C(=O)NC[C@H](NS(=O)(=O)c2ccccc2)C(=O)O)c1Cl [Example 65, 3-[3-Amino-2-chloro-4-{4-(1,4,5,6-tetrahydropyrimidin-2-yl)-piperazin-1-yl}-benzoylamino]-(2S)-benzenesulfonylamino-propionic Acid]
GP IIb/IIIa antagonistic activity (in words) (GP IIb/IIIa): extremely high GP IIb/IIIa antagonistic activity
integrin αvβ3 antagonistic activity (in words) [2]: high integrin αvβ3 antagonistic activity
IC50 [2]: 6.3 nM

Compound: C[C@H]1CN(c2ccc(C(=O)NC[C@H](NS(=O)(=O)c3ccccc3)C(=O)O)cc2F)CCN1C1=NCCCN1 [Example 72, (2S)-Benzenesulfonylamino-3-[3-fluoro-4-{(3S)-methyl-4-(1,4,5,6-tetrahydropyrimidin-2-yl)-piperazin-1-yl}-benzoylamino]-propionic Acid]
GP IIb/IIIa antagonistic activity (in words) (GP IIb/IIIa): extremely high GP IIb/IIIa antagonistic activity
IC50 (GP IIb/IIIa): ≤ 0.2 nM
integrin αvβ3 antagonistic activity (in words) [2]: high integrin αvβ3 antagonistic activity

Compound: Cc1cc(C)c(S(=O)(=O)N[C@@H](CNC(=O)c2ccc(N3CCN(c4ncccn4)CC3)c(F)c2)C(=O)O)c(C)c1 [Example 82, 3-[3-Fluoro-4-{4-(pyrimidin-2-yl)-piperazin-1-yl}-benzoylamino]-(2S)-(2,4,6-trimethyl-benzenesulfonylamino)-propionic Acid]
GP IIb/IIIa antagonistic activity (in words) (GP IIb/IIIa): extremely high GP IIb/IIIa antagonistic activity

Compound: Cc1cc(C)c(S(=O)(=O)N[C@@H](CNC(=O)c2ccc(N3CCN(C4=NCCCN4)CC3)c(F)c2)C(=O)O)c(C)c1 [Example 83, 3-[3-Fluoro-4-{4-(1,4,5,6-tetrahydropyrimidin-2-yl)-piperazin-1-yl}-benzoylamino]-(2S)-(2,4,6-trimethyl-benzenesulfonylamino)-propionic Acid]
IC50 [2]: 5.8 nM
IC50 [3]: 13000 nM

More lines, main results first:

oral absorption (Oral absorption in rats): excellent oral absorption
Compound: O=C(NC[C@H](NS(=O)(=O)c1ccccc1)C(=O)O)c1ccc(N2CCCN(c3ncccn3)CC2)cc1 [Example 5, (2S)-Benzenesulfonylamino-3-[4-{4-(pyrimidin-2-yl) -[1,4]diazepan-1-yl}-benzoylamino]-propionic acid]

IC50 [1]: 50 nM
Compound: CC1CN(c2ccc(C(=O)NC[C@H](NS(=O)(=O)c3ccccc3)C(=O)O)cc2)CCN1C1=NCCCN1 (stereo partly drawn) [Example 9, (2S)-Benzenesulfonylamino-3-[4-{3-methyl-4-(1,4,5,6-tetrahydropyrimidin-2-yl)-piperazin-1-yl}-benzoylamino]-propionic acid]
human platelet aggregation inhibition (in words) [1]: very strongly inhibited human platelet aggregation

IC50 [1]: 38 nM
Compound: N=C(N)N1CCN(c2ccc(C(=O)NC[C@H](NS(=O)(=O)c3ccccc3)C(=O)O)cc2)CC1 [Example 34, (2S)-Benzenesulfonylamino-3-[4-{4-(amidino)-piperazin-1-yl}-benzoylamino]-propionic Acid]
human platelet aggregation inhibition (in words) [1]: very strongly inhibited human platelet aggregation

IC50 (GP IIb/IIIa): ≤ 0.2 nM
Compound: O=C(NC[C@H](NS(=O)(=O)c1ccccc1)C(=O)O)c1ccc(N2CCN(C3=NCCCN3)CC2)cc1F [Example 56, (2S)-Benzenesulfonylamino-3-[2-fluoro-4-{4-(1,4,5,6-tetrahydropyrimidin-2-yl)-piperazin-1-yl}-benzoylamino]-propionic Acid]
